# Experimental data as given in patent publication US20240239799A1, “(S)-1-(5-((PYRIDIN-3-YL)THIO)PYRAZIN-2-YL)-4'H,6'H-SPIRO[PIPERIDINE-4,5'-PYRROLO [1,2-B]PYRAZOL]-4'-AMINE DERIVATIVES AND SIMILAR COMPOUNDS AS SHP2 INHIBITORS FOR THE TREATMENT OF E.G. CANCER” (C.N.C.C.S. S.C.A.R.L. COLLEZIONE NAZIONALE DEI COMPOSTI …, priority 2021, published 2024).
# Tests used:
# [1] = system: phospho-ERK1/2 (Thr202/Tyr204) in KYSE-520 cells; test: Phospho-ERK cellular assay (TR-FRET); type: cell-based; conditions: Homo sapiens, KYSE-520, 2 h, KYSE-520 cells, 2 h at 37° C.; read-out: pERK IC50
# Method: ERK phosphorylation was detected using the “Advanced phospho-ERK1/2 (Thr202/Tyr204)” TR-FRET kit (Cisbio, Cat #64AERPEG/H), following the manufacturer reagents and instructions.
# Briefly, 20.000/well KYSE-520 cells (DSMZ ACC 371) were plated in 6 μL RPMI-1640 (Invitrogen) growth medium, into 384 white low-volume high base TC microplates (Greiner). After an overnight incubation, cells were treated with DMSO serial diluted compounds and incubated for 2 h at 37° C. After incubation, 2 μL/well of 4X Lysis Buffer (Cisbio 64KL1FDF), were added and incubated with cells for 30 min on gentle shaking. Finally, lysates were added with 2 μL/well of Eu cryptate (donor) and D2 (acceptor) conjugated antibodies (as provided by the Cisbio kit #64AERPEG/H) diluted 1:100 in Detection Buffer (as provided by the Cisbio kit #64AERPEG/H). Plates were then sealed and incubated at rt in the dark. After an overnight incubation, the TR-FRET signal was detected on a suitable reader (Envision, PerkinElmer). The lower the TR-FRET signal the higher the higher the SHP2 inhibition in cells.
# The activity of each compound dilution was calculated as percentage between vehicle DMSO treated cells and no cells, 0% inhibition and 100% inhibition respectively. The percentage activity is fitted against the compound dilutions with a four-parameter logistic regression. The inflection point (i.e. the concentration at which half-maximal inhibition is achieved) is the IC50.
# [2] = target: T1, SHP-2 enzyme (Met1-Leu525) (Homo sapiens, UniProt Q06124); test: SHP2 inhibition enzymatic assay (DiFMUP substrate, IRS1 peptide activation); type: biochemical; conditions: 0.5 nM SHP-2, 500 nM IRS1 peptide, 75 μM DiFMUP; read-out: SHP2wt - IC50
# T1 construct: synthetized by Origene, Met1-Leu525, cat #TP750155; purchased Origene TP750155
# T1 sequence (Q06124 1-525): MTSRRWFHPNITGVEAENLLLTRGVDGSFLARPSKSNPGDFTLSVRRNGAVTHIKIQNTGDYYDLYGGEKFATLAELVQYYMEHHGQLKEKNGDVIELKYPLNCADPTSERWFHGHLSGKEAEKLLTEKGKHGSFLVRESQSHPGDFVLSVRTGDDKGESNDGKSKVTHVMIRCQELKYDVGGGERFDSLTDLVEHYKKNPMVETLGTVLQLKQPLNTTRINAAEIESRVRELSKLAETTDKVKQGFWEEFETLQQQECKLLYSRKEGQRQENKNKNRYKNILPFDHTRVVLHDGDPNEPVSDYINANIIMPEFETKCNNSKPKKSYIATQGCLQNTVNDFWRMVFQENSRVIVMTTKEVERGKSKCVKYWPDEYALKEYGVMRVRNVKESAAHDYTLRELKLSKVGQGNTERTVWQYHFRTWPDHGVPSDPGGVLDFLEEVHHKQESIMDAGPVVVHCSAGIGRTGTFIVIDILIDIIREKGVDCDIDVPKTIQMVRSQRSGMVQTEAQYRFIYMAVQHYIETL
# Method: Assay volume of 20 μL/well was assembled in 384 well black polystyrene low-binding microplates (Greiner), using the following buffer: 60 mM HEPES pH 7.2, 75 mM NaCl, 75 mM KCl, 1 mM EDTA pH 8, 0.05% tween-20, 5 mM DTT. The SHP-2 enzyme (synthetized by Origene, Met1-Leu525, cat #TP750155) was used at a final concentration of 0.5 nM.
# Briefly, DMSO serially diluted testing compounds were transferred to the bottom of the assay plate. SHP2 was then added together with the IRS1 peptide 30 min post incubation, the DiFMUP substrate was added to the reaction and incubated 30 min at rt. […] The fluorescence was detected by a microplate reader (Envision, PerkinElmer) according to the DiFMUP excitation and emission wavelength. The lower the fluorescence the higher the SHP2 inhibition.
# The percentage inhibition is fitted against the compound dilutions with a four-parameter logistic regression. The inflection point (i.e. the concentration at which half-maximal inhibition is achieved) is the IC50.
IC50 [1] [nM],IC50 [2] [nM],SMILES
< 100,50 to 300,"Nc1nccc(Sc2cnc(N3CCC4(CC3)Cn3nc(CO)c(CO)c3[C@H]4N)c3cncn23)c1Cl [Example 28, (S)-(4′-amino-1-(5-((2-amino-3-chloropyridin-4-yl)thio)imidazo[1,5-a]pyrazin-8-yl)-4′H,6′H-spiro[piperidine-4,5′-pyrrolo[1,2-b]pyrazole]-2′,3′-diyl)dimethanol]"
> 500,> 300,"Nc1nccc(Sc2ncc(N3CCC4(CC3)Cn3nccc3[C@H]4N)n3cncc23)c1Cl [Example 30, (S)-1-(8-((2-amino-3-chloropyridin-4-yl)thio)imidazo[1,5-a]pyrazin-5-yl)-4′H,6′H-spiro[piperidine-4,5′-pyrrolo[1,2-b]pyrazol]-4′-amine]"
100 to 500,≤ 50,"N[C@@H]1c2ccnn2CC12CCN(c1ncc(Sc3ccn4ccnc4c3Cl)n3cncc13)CC2 [Example 32, (S)-1-(5-((8-chloroimidazo[1,2-a]pyridin-7-yl)thio)imidazo[1,5-a]pyrazin-8-yl)-4′H,6′H-spiro[piperidine-4,5′-pyrrolo[1,2-b]pyrazol]-4′-amine]"
< 100,≤ 50,"Cc1cc(C)n(-c2nccc(Sc3cnc(N4CCC5(CC4)Cn4nccc4[C@H]5N)cn3)c2Cl)n1 [Example 34, (S)-1-(5-((3-chloro-2-(3,5-dimethyl-1H-pyrazol-1-yl)pyridin-4-yl)thio)pyrazin-2-yl)-4′H,6′H-spiro[piperidine-4,5′-pyrrolo[1,2-b]pyrazol]-4′-amine]"
100 to 500,≤ 50,"Nc1nccc(Sc2ccc(N3CCC4(CC3)Cn3nccc3[C@H]4N)nn2)c1Cl [Example 35, (S)-1-(6-((2-amino-3-chloropyridin-4-yl)thio)pyridazin-3-yl)-4′H,6′H-spiro[piperidine-4,5′-pyrrolo[1,2-b]pyrazol]-4′-amine]"
> 500,≤ 50,"Nc1nc(N2CCC3(CC2)Cn2nncc2[C@H]3N)cnc1Sc1cccnc1C(F)(F)F [Example 36, (S)-1-(6-amino-5-((2-(trifluoromethyl)pyridin-3-yl)thio)pyrazin-2-yl)-4′H,6′H-spiro[piperidine-4,5′-pyrrolo[1,2-c][1,2,3]triazol]-4′-amine]"
100 to 500,≤ 50,"Nc1nc(N2CCC3(CC2)Cn2nncc2[C@H]3N)cnc1Sc1ccnc(N)c1Cl [Example 37, (S)-1-(6-amino-5-((2-amino-3-chloropyridin-4-yl)thio)pyrazin-2-yl)-4′H,6′H-spiro[piperidine-4,5′-pyrrolo[1,2-c][1,2,3]triazol]-4′-amine]"
100 to 500,≤ 50,"Nc1nccc(Sc2cnc(N3CCC4(CC3)Cn3nncc3[C@H]4N)n3ccnc23)c1Cl [Example 39, (S)-1-(8-((2-amino-3-chloropyridin-4-yl)thio)imidazo[1,2-c]pyrimidin-5-yl)-4′H,6′H-spiro[piperidine-4,5′-pyrrolo[1,2-c][1,2,3]triazol]-4′-amine]"
< 100,≤ 50,"Nc1nccc(-c2n[nH]c3nc(N4CCC5(CC4)Cn4nccc4[C@H]5N)cnc23)c1Cl [Example 40, (S)-1-(3-(2-amino-3-chloropyridin-4-yl)-1H-pyrazolo[3,4-b]pyrazin-6-yl)-4′H,6′H-spiro[piperidine-4,5′-pyrrolo[1,2-b]pyrazol]-4′-amine]"
> 500,≤ 50,"N[C@@H]1c2cnnn2CC12CCN(c1cnc3c(-c4cccc(Cl)c4Cl)n[nH]c3n1)CC2 [Example 41, (S)-1-(3-(2,3-dichlorophenyl)-1H-pyrazolo[3,4-b]pyrazin-6-yl)-4′H,6′H-spiro[piperidine-4,5′-pyrrolo[1,2-c][1,2,3]triazol]-4′-amine]"
> 500,50 to 300,"Nc1nccc(Sc2cnc(N3CCC4(CC3)Cn3cnnc3[C@H]4N)cn2)c1Cl [Example 42, (S)-1-(5-((2-amino-3-chloropyridin-4-yl)thio)pyrazin-2-yl)-5′H,7′H-spiro[piperidine-4,6′-pyrrolo[2,1-c][1,2,4]triazol]-7′-amine]"
< 100,≤ 50,"Cc1nc(N2CCC3(CC2)Cn2nccc2[C@H]3N)c(CO)nc1Sc1ccnc(N)c1Cl [Example 45, (S)-(6-((2-amino-3-chloropyridin-4-yl)thio)-3-(4′-amino-4′H,6′H-spiro[piperidine-4,5′-pyrrolo[1,2-b]pyrazol]-1-yl)-5-methylpyrazin-2-yl)methanol]"
< 100,≤ 50,"Cn1c(N2CCC3(CC2)Cn2nccc2[C@H]3N)nc2[nH]nc(-c3ccnc(N)c3Cl)c2c1=O [Example 46, (S)-3-(2-amino-3-chloropyridin-4-yl)-6-(4′-amino-4′H,6′H-spiro[piperidine-4,5′-pyrrolo[1,2-b]pyrazol]-1-yl)-5-methyl-1,5-dihydro-4H-pyrazolo[3,4-d]pyrimidin-4-one]"
< 100,≤ 50,"Nc1cnc(Sc2cnc(N3CCC4(CC3)Cn3nccc3[C@H]4N)cn2)c(Cl)n1 [Example 47, (S)-1-(5-((5-amino-3-chloropyrazin-2-yl)thio)pyrazin-2-yl)-4′H,6′H-spiro[piperidine-4,5′-pyrrolo[1,2-b]pyrazol]-4′-amine]"
< 100,≤ 50,"N[C@@H]1c2ccnn2CC12CCN(c1cnc(Sc3ccn4c(Cl)cnc4c3Cl)cn1)CC2 [Example 48, (S)-1-(5-((3,8-dichloroimidazo[1,2-a]pyridin-7-yl)thio)pyrazin-2-yl)-4′H,6′H-spiro[piperidine-4,5′-pyrrolo[1,2-b]pyrazol]-4′-amine]"
< 100,≤ 50,"N[C@@H]1c2c(F)cnn2CC12CCN(c1cnc(Sc3ccn4c(Cl)cnc4c3Cl)cn1)CC2 [Example 50, (S)-1-(5-((3,8-dichloroimidazo[1,2-a]pyridin-7-yl)thio)pyrazin-2-yl)-3′-fluoro-4′H,6′H-spiro[piperidine-4,5′-pyrrolo[1,2-b]pyrazol]-4′-amine]"
100 to 500,≤ 50,"N[C@@H]1c2ccnn2CC12CCN(c1cnc(Sc3ccn4cnnc4c3Cl)cn1)CC2 [Example 51, (S)-1-(5-((8-chloro-[1,2,4]triazolo[4,3-a]pyridin-7-yl)thio)pyrazin-2-yl)-4′H,6′H-spiro[piperidine-4,5′-pyrrolo[1,2-b]pyrazol]-4′-amine]"
< 100,≤ 50,"N[C@@H]1c2ccnn2CC12CCN(c1cnc(Sc3ccn4c([N+](=O)[O-])cnc4c3Cl)cn1)CC2 [Example 52, (S)-1-(5-((8-chloro-3-nitroimidazo[1,2-a]pyridin-7-yl)thio)pyrazin-2-yl)-4′H,6′H-spiro[piperidine-4,5′-pyrrolo[1,2-b]pyrazol]-4′-amine]"
< 100,≤ 50,"Nc1ccc(Sc2cnc(N3CCC4(CC3)Cn3nccc3[C@H]4N)cn2)c(Cl)n1 [Example 55, (S)-1-(5-((6-amino-2-chloropyridin-3-yl)thio)pyrazin-2-yl)-4′H,6′H-spiro[piperidine-4,5′-pyrrolo[1,2-b]pyrazol]-4′-amine]"
< 100,≤ 50,"N[C@@H]1c2ccnn2CC12CCN(c1cnc(Sc3ccc4nccn4c3Cl)cn1)CC2 [Example 56, (S)-1-(5-((5-chloroimidazo[1,2-a]pyridin-6-yl)thio)pyrazin-2-yl)-4′H,6′H-spiro[piperidine-4,5′-pyrrolo[1,2-b]pyrazol]-4′-amine]"
